Each structure is given as a SMILES string.

Format in all cases: cell-based, human
The test system of one assay is Z138 MCL cells. As to the kind of experiment: CellTiter-Blue cell viability, combination (CI analysis). The following applies: Z138, 72 hours, single agent. From the text: Cell viability was next assessed using the CellTiter-Blue reagent (Promega). The results of these experiments are shown in FIG. 8 and in the Table below.
In general terms: Alamar Blue is a resazurin reagent that responds to reducing activity.

A further assay relates to Mino MCL cells. The description is as above. As to conditions: 72 hours, single agent. From the text:
Cell viability was next assessed using the CellTiter-Blue reagent (Promega).

The subject of assay [1] is Z138 cells. Kind of assay: Apoptosis by 7-AAD/Annexin V flow cytometry. As to conditions: Z138, 48 hours; Compound A 3 or 12.5 μM, ibrutinib 10 or 30 μM, alone or combined (FIGS. 2-3). From the text:
(§1) Annexin/PI flow cytometric analysis was used to determine percentage of apoptotic cells. […]

Assay [2] has as its system Mino cells. As to the kind of experiment: Apoptosis by 7-AAD/Annexin V flow cytometry. As to conditions: 48 hours, Compound A 3 or 12.5 μM, ibrutinib 10 or 30 μM, alone or combined (FIGS. 2-3).
Excerpt: as §1
For orientation: Flow cytometry measures light scatter and fluorescence of single cells or particles in a stream.

Assay [3] concerns Mino cells. As to the kind of experiment: Cell cycle analysis by propidium iodide flow cytometry. The following applies: 48 hours, Compound A 13 μM, ibrutinib 10 μM, alone or combined (FIG. 5). The protocol:
Cells were fixed and stained with propidium iodide (PI) and were analyzed by flow cytometry.

The test system of assay [4] is Mino cells. Kind of assay: Viability of MCL cells after inhibition of HDAC6.
Assay [5] has as its system Z138 cells. As to the kind of experiment: Viability of MCL cells after inhibition of HDAC6.
Where [6] appears, read: at Fa of combination dose 1.3E−6/3.1E−6.
Setting [7] is: at Fa of combination dose 2.5E−6/6.2E−6.
[8] abbreviates: at Fa of combination dose 5.0E−6/12.5E−6.
The mark [9] stands for this setting: at Fa of combination dose 10.0E−6/25.0E−6.
[10] abbreviates: at Fa of combination dose 20.0E−6/50.0E−6.
Where [11] appears, read: at Fa of combination dose 78.1E−9/195.3E−9.
[12] abbreviates: at Fa of combination dose 156.3E−9/390.6E−9.
The mark [13] stands for this setting: at Fa of combination dose 312.5E−9/781.2E−9.
[14] abbreviates: at Fa of combination dose 625.0E−9/1.6E−6.

On to `C=CC(=O)N1CCC[C@@H](n2nc(-c3ccc(Oc4ccccc4)cc3)c3c(N)ncnc32)C1` [ibrutinib, reference compound], for which the “Dm (PCI-32765)” value with Z138 MCL cells (setting [6]) is recorded as 56.7E−6; in the assay with Z138 MCL cells (setting [7]), 146.1E−6; in the assay on Z138 MCL cells (setting [8]), 376.3E−6; in the assay on Z138 MCL cells (setting [9]), 969.0E−6; in the assay with Z138 MCL cells (setting [10]), 2.5E−3; in the assay on Z138 MCL cells (setting [11]) it was 1.3E−6. Besides, the “Dm (PCI-32765)” value in the assay on Z138 MCL cells (setting [12]) came to 3.3E−6; with Z138 MCL cells (setting [13]), 8.6E−6; in the assay on Z138 MCL cells (setting [14]), 22.0E−6; in the assay on Mino MCL cells (setting [6]) it was 5.1E−6; in the assay on Mino MCL cells (setting [7]), 10.2E−6; with Mino MCL cells (setting [8]), 20.5E−6. Moreover, the “Dm (PCI-32765)” value with Mino MCL cells (setting [10]) came out at 83.0E−6; in the assay with Mino MCL cells (setting [11]), 308.7E−9; in the assay with Mino MCL cells (setting [12]), 621.3E−9; with Mino MCL cells (setting [13]) it was 1.3E−6; with Mino MCL cells (setting [14]), 2.5E−6. For the same compound, the induction of apoptosis result in the assay on Z138 cells [1] and in the assay with Mino cells [2] was “induction of apoptosis” each time. Further, the cell cycle distribution result in the assay with Mino cells [3] is “little effect on cell cycle distribution”.
For the compound `O=C(CCCCCCNC(=O)c1cnc(N(c2ccccc2)c2ccccc2)nc1)NO` [Compound A, 2-(diphenylamino)-N-(7-(hydroxyamino)-7-oxoheptyl)pyrimidine-5-carboxamide], the cell viability result with Mino cells [4] and in the assay with Z138 cells [5] was “decreased viability” in each case. Moreover, the “Dm (Cmpd A)” value is 1.7E−6 with Z138 MCL cells (setting [6]); 3.4E−6 in the assay on Z138 MCL cells (setting [7]); 6.8E−6 in the assay on Z138 MCL cells (setting [8]); 13.7E−6 in the assay with Z138 MCL cells (setting [9]); 27.7E−6 in the assay with Z138 MCL cells (setting [10]); 100.1E−9 in the assay with Z138 MCL cells (setting [11]). Also, the “Dm (Cmpd A)” value was 202.2E−9 in the assay with Z138 MCL cells (setting [12]); 408.3E−9 in the assay with Z138 MCL cells (setting [13]); 824.5E−9 in the assay on Z138 MCL cells (setting [14]); 1.6E−6 in the assay with Mino MCL cells (setting [6]); 13.1E−6 in the assay on Mino MCL cells (setting [7]); 108.1E−6 in the assay with Mino MCL cells (setting [8]). The “Dm (Cmpd A)” value was 894.0E−6 with Mino MCL cells (setting [9]); 7.4E−3 in the assay with Mino MCL cells (setting [10]); 338.3E−12 with Mino MCL cells (setting [11]); 2.8E−9 in the assay with Mino MCL cells (setting [12]); 23.1E−9 with Mino MCL cells (setting [13]); 191.2E−9 with Mino MCL cells (setting [14]). Besides, the induction of apoptosis entry in the assay on Z138 cells [1] and in the assay with Mino cells [2] was “induction of apoptosis” throughout. In the assay on Mino cells [3], the cell cycle distribution result was “little effect on cell cycle distribution”.

(Values after patent US20150105409A1, “HDAC INHIBITORS, ALONE OR IN COMBINATION WITH BTK INHIBITORS, FOR TREATING NONHODGKIN'S LYMPHOMA” (Acetylon Pharmaceticals, Inc., priority 2013, published 2015).)
